The record followed here is BindingDB's records for doi:10.1021/jm9807003 (National Institute of Diabetes, 1999).

The experiment is described as follows: Ability to inhibit GTP-gamma-S binding to Opioid receptor delta 1 of guinea pig caudate. (GTPγS resists hydrolysis and so accumulates on activated G proteins.)

Each structure is given as a SMILES string.

What is called Ki is a measure of affinity in units of concentration, obtained from inhibition or displacement. Read a low Ki as a stronger hold on the target. The compound `COc1ccc2c(c1O)[C@]13CCN(CC4CC4)[C@H](C2)[C@@H]1Cc1c([nH]c2ccccc12)C3` [17-cyclopropylmethyl-6,7-didehydro-4-hydroxy-3-methoxy-6,7:2',3'-indolmorphinan] came in with an inhibition constant (Ki) of 22 nM.
